Reference: PubChem BioAssay AID2068 (Sanford-Burnham Center for Chemical Genomics, 2009)

Molecular target: Tyrosine-protein phosphatase non-receptor type 7 (Homo sapiens) (UniProt P35236)
Assay: redox-dependent HePTP inhibition, mechanism study, biochemical, fluorescence (AID 2068)
Conditions: recombinant HePTP, fluorescent phosphatase assay, redox-state modulation

Tyrosine-protein phosphatase non-receptor type 7 (Homo sapiens), sequence (P35236 whole entry, looked up): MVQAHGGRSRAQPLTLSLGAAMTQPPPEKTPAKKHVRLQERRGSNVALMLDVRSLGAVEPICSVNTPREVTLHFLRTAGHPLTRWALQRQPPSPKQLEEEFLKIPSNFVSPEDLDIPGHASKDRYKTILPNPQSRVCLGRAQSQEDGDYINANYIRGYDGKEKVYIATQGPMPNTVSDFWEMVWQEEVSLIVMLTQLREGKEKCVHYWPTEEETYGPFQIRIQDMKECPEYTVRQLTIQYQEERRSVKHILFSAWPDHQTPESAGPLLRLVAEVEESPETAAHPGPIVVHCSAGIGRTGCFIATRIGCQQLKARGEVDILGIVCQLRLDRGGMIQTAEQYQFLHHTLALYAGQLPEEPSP

Compound O=C(O)CSc1cc(C(=O)c2ccccc2O)cn2c(=O)c3c(-c4ccccc4)csc3nc12 has an IC50 of 1750 nM.
